According to PMC7000521, “Hazard Characterization of Synthetic Cathinones Using Viability, Monoamine Reuptake, and Neuronal Activity Assays” (Frontiers in Neuroscience, 2020):
Where two headings read alike, the source gives them in different places.

Experiments:
[1] = Estimated human brain concentrations and comparison with IC50 values; conditions: recreational human blood/serum/plasma concentration multiplied with BPF
Source text: (§1) To correlate reported effect concentrations to expected concentrations in the human brain during recreational use a brain partitioning factor (BPF; […]) was applied, as actual human brain concentrations following recreational drug use are unknown. Expected concentrations in the human brain were estimated by multiplying recreational human blood/serum/plasma concentrations with the BPF. Human recreational blood, serum, or plasma levels were obtained from literature (driving under the influence or accidental non-fatal intoxications). The BPF was determined for each drug by dividing the brain concentration by the blood/serum/plasma concentration found in human post mortem reports, or animal studies (rat/mice) when human data were insufficient.
To identify the relevance of effects and potentially harmful drugs, effect concentrations (IC50 values) were related to the estimated human brain concentration during recreational use [(brain), Table 2]. By comparing these concentrations, the most relevant neurotoxic mechanisms of cathinones can be identified. […] Only 4-MEC and MDPV inhibited neuronal activity during acute exposure at concentrations within (MDPV) or close to (4-MEC) the estimated brain concentration.

hDAT = target: T1, hDAT (Homo sapiens, UniProt Q01959); assay: Monoamine uptake assay (fluorescent substrate), hDAT; assay type: cell-based
T1 construct: expressed in transfected cells
Method: (§2) Human embryonic kidney (HEK) 293 cells stably expressing human DAT, NET, or SERT (kindly provided by Dr. Hoener from F. Hoffmann-La Roche Ltd., Basel, Switzerland) were cultured as described in [Zwartsen et al. (2017)].
(§3) Uptake activity of hNET, hDAT, and hSERT was measured using the Neurotransmitter Transporter Uptake Assay Kit from MDS Analytical Technologies (Sunnyvale, CA, United States) as described in detail previously ([Zwartsen et al., 2017]). The kit contained a mixture consisting of a fluorescent substrate, which resembles the biogenic amine neurotransmitters, and a masking dye that extinguishes extracellular fluorescence. Uptake of the fluorescent substrate, a measure of neurotransmitter transporter function, increases intracellular fluorescence, while extracellular fluorescence is blocked by the masking dye ([Jorgensen et al., 2008]). The mixture was dissolved in Hank’s Balanced Salt Solution (1×) (HBSS) with 20 mM HEPES, and kept up to 1 week at −20°C.
On day 0, HEK 293 cells were seeded (60,000 cells/well) in clear-bottom black-walled 96-well plates coated with poly-L-lysine (PLL, 50 mg/L). On day 1, cells were pre-incubated with the fluorescent substrate mixture (95 μL/well, comprising of the fluorescent substrate and the extracellular masking dye, dissolved in HBSS) for 12 min (t = −12 to t = 0). During incubation, intracellular fluorescence was measured every 3 min. […] Stock solutions and dilutions were freshly prepared in HBSS (1×) at the day of usage. Effects of 3-MMC, 4-MMC, 4-MEC, methylone, pentedrone, MDPV, 3-MMCinternet, and 4-MECinternet were measured at final concentrations of 0.03–300/1000 μM. Fluorescence was measured with a microplate reader (Tecan Infinite M200 microplate; Tecan Trading Männedorf, Switzerland) at 37°C at 430/515 nm excitation/emission wavelength. For more experimental detail see [Zwartsen et al. (2017)].
Data from the monoamine uptake assay were analyzed as described by [Zwartsen et al. (2017)], with minor modifications. Data for α-PVP were reanalyzed from [Zwartsen et al. (2017)]. In short, the fluorescence of each well was background corrected and uptake was determined per well by calculating the change in fluorescence (ΔFU) at 12 min after drug exposure (t = 12) compared to the fluorescence at the start of exposure (t = 0), as a percentage of the fluorescence at the start of exposure (%ΔFU = ((FUt = 12−FUt = 0)/FUt = 0)∗100%; see [Zwartsen et al., 2017]). Plate-matched control values for each compound (e.g., methylone) above or below two times the standard deviation of the average normalized control value were considered outliers and were removed from analysis (4.8%). Thereafter, uptake in drug-exposed wells was expressed as a percentage of control wells on the same plate and all uptake values were scaled between 0 and 100%. Outliers (>mean ± 2×SD) in exposed groups were removed (2.7%) and uptake (% compared to control) was expressed as mean ± SEM of nwells from Nplates.
Concentration–response curves were made for transporter, MEA, and cell viability assays. To calculate IC50 values, a four-parameter logistic curve with a variable slope was used (Y = Bottom + (Top−Bottom)/(1 + 10∧((LogIC50 − X) ^∗ HillSlo pe))) (GraphPad Prism, version 7.04). When applicable, significance between concentrations and controls (for MEA) and different IC50 values [between different transporters (DAT/NET/SERT), MEA parameters (MSR/MBR/MNBR), exposure settings (acute/prolonged/recovery), and drug grade (pharmaceutical/internet)] were determined using unpaired t-tests (two values) or one-way ANOVA’s followed by a post hoc Dunnet’s test (>2 values). All statistical tests were performed using GraphPad Prism. For recovery of neuronal activity, IC50 values and 95% confidence intervals could not always be determined and are reported as higher than the highest concentration tested (e.g., >1000 μM). […]

[2] = recreational use (driving under the influence or accidental non-fatal intoxications); ref literature; cited from earlier work
[3] = Brain partitioning factor (BPF); conditions: brain concentration divided by blood/serum/plasma concentration from human post mortem reports or animal studies (rat/mice)
Source text: as §1

hNET = target: T2, hNET (Homo sapiens, UniProt P23975); assay: Monoamine uptake assay (fluorescent substrate), hNET; assay type: cell-based
T2 construct: expressed in transfected cells
Method: as §2
as §3, with “The mixture was dissolved in Hank’s Balanced Salt Solution (1×) (HBSS) with 20 mM HEPES, and kept up to 1 week at −20°C.” left out
(§4) On day 0, HEK 293 cells were seeded (60,000 cells/well) in clear-bottom black-walled 96-well plates coated with poly-L-lysine (PLL, 50 mg/L). […] During incubation, intracellular fluorescence was measured every 3 min. […] Effects of 3-MMC, 4-MMC, 4-MEC, methylone, pentedrone, MDPV, 3-MMCinternet, and 4-MECinternet were measured at final concentrations of 0.03–300/1000 μM. Fluorescence was measured with a microplate reader (Tecan Infinite M200 microplate; Tecan Trading Männedorf, Switzerland) at 37°C at 430/515 nm excitation/emission wavelength. […]

hSERT = target: T3, hSERT (Homo sapiens, UniProt P31645); assay: Monoamine uptake assay (fluorescent substrate), hSERT; assay type: cell-based
T3 construct: expressed in transfected cells
Method: as §2
as §3, with “The mixture was dissolved in Hank’s Balanced Salt Solution (1×) (HBSS) with 20 mM HEPES, and kept up to 1 week at −20°C.” left out
as §4

[4] = system: rat primary cortical cultures; parameters: method as in Zwartsen et al., 2019; conditions: value [CI], published previously ref Zwartsen et al., 2019, cited from earlier work

T1 sequence (Q01959 whole entry): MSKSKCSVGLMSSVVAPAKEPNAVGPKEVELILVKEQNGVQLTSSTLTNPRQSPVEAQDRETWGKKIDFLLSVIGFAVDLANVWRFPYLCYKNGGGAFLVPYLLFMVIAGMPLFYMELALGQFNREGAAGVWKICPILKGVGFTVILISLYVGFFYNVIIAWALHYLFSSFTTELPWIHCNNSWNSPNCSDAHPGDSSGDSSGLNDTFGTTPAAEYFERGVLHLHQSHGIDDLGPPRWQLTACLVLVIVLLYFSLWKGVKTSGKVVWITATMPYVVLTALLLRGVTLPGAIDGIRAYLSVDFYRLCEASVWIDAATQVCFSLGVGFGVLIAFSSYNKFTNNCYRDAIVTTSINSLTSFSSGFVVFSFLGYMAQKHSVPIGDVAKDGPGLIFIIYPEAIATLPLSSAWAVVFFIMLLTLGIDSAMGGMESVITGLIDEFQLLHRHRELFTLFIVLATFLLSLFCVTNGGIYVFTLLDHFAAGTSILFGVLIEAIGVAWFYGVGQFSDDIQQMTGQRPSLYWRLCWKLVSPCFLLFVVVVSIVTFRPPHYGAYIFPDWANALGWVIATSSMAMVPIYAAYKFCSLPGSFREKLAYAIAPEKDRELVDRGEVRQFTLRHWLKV
T3 sequence (P31645 whole entry): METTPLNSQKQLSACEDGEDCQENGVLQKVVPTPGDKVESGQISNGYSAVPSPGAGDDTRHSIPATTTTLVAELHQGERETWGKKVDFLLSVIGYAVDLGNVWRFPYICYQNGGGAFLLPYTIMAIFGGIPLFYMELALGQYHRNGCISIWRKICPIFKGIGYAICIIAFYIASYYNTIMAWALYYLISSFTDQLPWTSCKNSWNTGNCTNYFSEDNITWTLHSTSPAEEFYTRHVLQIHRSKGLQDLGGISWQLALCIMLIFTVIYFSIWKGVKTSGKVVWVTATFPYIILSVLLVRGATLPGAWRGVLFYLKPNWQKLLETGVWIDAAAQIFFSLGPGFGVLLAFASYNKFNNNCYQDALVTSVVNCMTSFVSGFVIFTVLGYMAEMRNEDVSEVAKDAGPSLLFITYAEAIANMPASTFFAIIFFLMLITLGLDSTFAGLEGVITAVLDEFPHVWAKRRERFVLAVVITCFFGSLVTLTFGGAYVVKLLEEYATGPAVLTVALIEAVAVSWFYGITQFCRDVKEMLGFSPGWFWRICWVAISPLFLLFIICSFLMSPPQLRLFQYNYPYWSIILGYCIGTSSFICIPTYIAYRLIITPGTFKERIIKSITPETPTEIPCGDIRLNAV
T2 sequence (P23975 whole entry): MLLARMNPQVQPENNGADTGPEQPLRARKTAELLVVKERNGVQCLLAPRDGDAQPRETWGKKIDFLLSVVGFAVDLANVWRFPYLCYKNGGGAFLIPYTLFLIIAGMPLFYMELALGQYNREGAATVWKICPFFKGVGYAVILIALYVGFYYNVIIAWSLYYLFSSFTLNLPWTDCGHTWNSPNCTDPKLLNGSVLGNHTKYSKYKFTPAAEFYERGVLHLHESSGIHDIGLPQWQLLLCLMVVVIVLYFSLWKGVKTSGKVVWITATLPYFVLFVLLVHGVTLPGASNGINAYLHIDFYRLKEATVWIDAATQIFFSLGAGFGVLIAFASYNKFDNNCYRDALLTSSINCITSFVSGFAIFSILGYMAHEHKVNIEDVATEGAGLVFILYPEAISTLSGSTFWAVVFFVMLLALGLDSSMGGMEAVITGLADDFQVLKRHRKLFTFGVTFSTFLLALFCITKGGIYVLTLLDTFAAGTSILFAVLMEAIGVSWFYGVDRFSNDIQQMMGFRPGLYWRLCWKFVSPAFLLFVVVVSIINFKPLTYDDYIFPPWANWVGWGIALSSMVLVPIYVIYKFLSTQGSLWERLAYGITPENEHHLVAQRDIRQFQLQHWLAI

Structure (SMILES)	Estimated human (brain) concentration [1] [µM]	IC50 (hDAT) [µM]	Human (serum/blood/plasma) concentration [2]	Brain partitioning factor (BPF) [3]	IC50 (hNET) [µM]	IC50 (hSERT) [µM]	IC50 ([4]; acute exposure 30 min, read-out: Neuronal activity IC50, mean burst rate (MBR), acute) [µM]	IC50 ([4]; acute exposure 30 min, read-out: Neuronal activity IC50, mean network burst rate (MNBR), acute) [µM]	IC50 ([4]; acute exposure 30 min, read-out: Neuronal activity IC50, mean spike rate (MSR), acute) [µM]	IC50 ([4]; prolonged exposure 4.5 h, read-out: Neuronal activity IC50, mean burst rate (MBR), prolonged) [µM]
CNC(C)C(=O)c1cccc(C)c1 (centres unmarked) [3-MMC, 2-(methylamino)-1-(3-methylphenyl) propan-1-one]	0.005 to 9.0	2.5	0.005–9.0^A,b,^c μM							
CCNC(C)C(=O)c1ccc(C)cc1 (centres unmarked) [4-MEC, 2-(ethylamino)-1-(4-methylphenyl) propan-1-one]	0.2 to 29	1.6	0.1–4.7^a^,d μM	1.5–6.2^4						
CNC(C)C(=O)c1ccc(C)cc1 (centres unmarked) [4-MMC, 2-(methylamino)-1-(4-methylphenyl) propan-1-one]	0.04 to 37	1.4	0.05–6.0^a^,d,E,f μM	0.7–6.2^1,^–2,^3						
CCCC(C(=O)c1ccc2c(c1)OCO2)N1CCCC1 (centres unmarked) [MDPV, 1-(1,3-benzodioxol-5-yl)-2-pyrro lidin-1-ylpentan-1-one]	0.02 to 30	0.07	0.02–6.9^d,L,M,n μM	0.8–4.4^4,11,12	0.03	4.5	40	35	30	61
CCCC(NC)C(=O)c1ccccc1 (centres unmarked) [Pentedrone, 2-(methylamino)-1-phenyl pentan-1-one]	0.06 to 3.0	0.4	0.04–1.9^a^,d,I μM	1.6^8		16				
